# Laboratory results taken from patent US12535460B2, “Small molecule detection in normal ionic strength buffers” (ARIZONA BOARD OF REGENTS ON BEHALF OF ARIZONA STATE …, priority 2020, dated 2026).
# Experiments:
# [1] = target: T1, GPR55 (Homo sapiens, UniProt Q9Y2T6); test: VirD oscillator method, Tocrifluor/GPR55 pair in diluted buffer; format: binding
# Text: To study the impact of buffer ionic strength on the binding kinetics, the binding results in 1×PBS were compared with results measured in a more diluted buffer solution (40 times diluted 1×PBS) for the same experiments performed with ADRB2-B2 antagonist pair. The solid lines in FIG. 7 show the global fitting of the data with first-order kinetic model. […] Both of the GPCR binding pairs measured involve electrostatic interactions, since the reported binding site of GPR55 is hydrophilic, and ADRB2 is partially hydrophilic. Thus, the affinity measured under normal and diluted PBS are different. […] Due at least in part to the strong ionic screening effect in normal ionic strength buffer, the signal intensity is reduced to about half of the measurement in low ionic strength buffer while the noise remains at a similar level.
# Target sequence in this assay (Q9Y2T6 whole entry, species assumed): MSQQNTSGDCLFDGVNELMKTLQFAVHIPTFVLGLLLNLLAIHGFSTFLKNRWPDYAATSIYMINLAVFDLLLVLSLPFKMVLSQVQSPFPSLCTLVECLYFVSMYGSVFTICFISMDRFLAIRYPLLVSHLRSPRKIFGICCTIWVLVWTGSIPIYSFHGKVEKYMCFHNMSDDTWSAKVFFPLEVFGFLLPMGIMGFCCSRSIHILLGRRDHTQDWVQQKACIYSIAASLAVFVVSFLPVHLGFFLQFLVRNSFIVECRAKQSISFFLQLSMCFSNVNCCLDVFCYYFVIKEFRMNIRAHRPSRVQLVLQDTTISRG
# [2] = system: empty virion K082 (no GPCR displayed); test: CSOD negative control with empty virion K082 modified fiber; format: binding, HSV-1
# Text: Virions are functionalized to fiber surface via epoxy coupling, and the binding of respective small molecule antagonists B2 antagonist and Tocrifluor are studied in 1×PBS. First, the virions modified fiber tip was dipped into one well filled with 1×PBS buffer to establish a baseline. Subsequently, the fiber tip was switched from the buffer well to a sample well containing ligands to measure the binding or association process. At last, the fiber tip was switched back to the buffer well for dissociation studies. […] Solid lines are global fitting of the data with a first-order kinetic model. […] For both binding pairs, when no ligand is introduced, the baseline level is within the noise level, showing that the oscillation amplitude change was caused by the specific binding between the ligands and their corresponding receptors.
# [3] = target: T1, GPR55; test: CSOD binding kinetics of a small molecule ligand to virion-displayed GPR55; set-up: made in house; host or cells: recombinant HSV-1 virions (VirD), made by collaborators at Johns Hopkins University; conditions: 1×PBS, global fitting with first-order kinetics
# Text: An inverted microscope (Olympus IX-70 with 40× objective) with a CCD camera (Pike F-032, Allied Vision) was used for recording 14-bit grayscale image sequences at a frame rate of 106.5. A customized plate with 2 PDMS wells shown in FIGS. 1A and 1B was mounted on a motorized microscope stage (MAC 6000 modular automation controller, Ludl Electronic Products LTD.). Two steel electrodes (1 cm×3 cm) were placed 1 cm apart inside the well, then blocked with agarose electrophoresis gel. A green LED (505 nm, 400 mW, Thorlabs M505L3) light was coupled into the fiber via a focusing lens. Fiber is dipped into analyte solution between the electrophoresis gels. To control the fiber and move the fiber between the 2 wells, the fiber was clamped to a motorized arm (A-LSQ075B, Zaber). A sinusoidal potential was applied with a function generator (33521A, Agilent). A USB data acquisition card (USB-6229, National Instruments) was used to record voltage and current.
# The tip (about 1 cm) of an optical fiber thread (about 20 cm) was first soaked in acetone for 1 minute and then rinsed with DI water and dried. The polymer coating layer on the optical fiber was then stripped off with an optical fiber stripper. The bare fiber was etched by soaking it in 47% hydrofluoric acid for 29 minutes and 15 seconds for a diameter of approximately 15 μm. The etched fiber was later rinsed with DI water to wash off the hydrofluoric acid and then blown dry with nitrogen. The tip was cut to about 9 mm long. Before functionalization, the optical fiber was cleaned with oxygen plasma for 3 minutes.
# The etched fiber was soaked in (3-glycidyloxypropyl)trimethoxysilane (epoxy) solution (2.5% volume percentage of epoxy in isopropanol) for 1 hour for surface functionalization. The fiber was then rinsed with PBS buffer. […]
# By fitting the kinetic curves at different concentrations globally with first-order kinetics, the association rate constant (ka), dissociation rate constant (kd) as well as equilibrium constant (KD) for both binding pairs are calculated.
# Target sequence in this assay (Q9Y2T6 whole entry): as the sequence (Q9Y2T6 whole entry, species assumed) above
substance,measurement,setting,value
Tocrifluor,Kd,[1],160 ± 50 nM
same,binding to empty virion K082,[2],binds to neither
same,association rate constant ka,[3],9200 M⁻¹ s⁻¹
same,dissociation rate constant kd,[3],0.00081 s⁻¹
same,Kd,[3]; read-out: equilibrium constant KD,89 nM
